The text below walks through data of the NIST ThermoML archive (doi:10.1016/j.jct.2016.09.015).

For series [1] the following is noted: Crystal; DTA.
Series [2] is described as follows: Molar enthalpy of transition or fusion. As to conditions: Crystal; DSC.

± gives the expanded uncertainty stated by the source.

Regarding `C[C@@H]1O[C@@H](OC[C@H]2O[C@@H](Oc3c(-c4ccc(OCCO)c(OCCO)c4)oc4cc(OCCO)cc(O)c4c3=O)[C@H](O)[C@@H](O)[C@@H]2O)[C@H](O)[C@H](O)[C@H]1O` [Troxerutin], the Normal melting temperature in series [1] is 168.68 ± 0.46 °C. Besides, the “Molar enthalpy of transition or fusion” value in series [2] was determined as 7.44 ± 0.526 kcal/mol.
